# Several values for one entry are separate records, joined by “and”; a condition that tells them apart may be missing. Equal values may be shown once.
# Tested on: sleep-deprived healthy volunteers
# Assay: Maintenance of wakefulness test (MWT) in sleep-deprived healthy volunteers
# Type: in vivo, human
# Conditions: for Total Sleep Time LS Mean / Total Sleep Time LS Mean Difference vs Placebo Estimate / Total Wake Time LS Mean / Total Wake Time LS Mean Difference vs Placebo Estimate: M: Modafinil 300 mg; for Duration Total Microsleeps (MWT), LS Mean / Duration Total Microsleeps (MWT), LS Mean Difference vs placebo / Latency to Sleep Onset on MWT, LS Mean / Latency to Sleep Onset on MWT, LS Mean Difference vs placebo / Stage N1 Duration (MWT), LS Mean / Stage N1 Duration (MWT), LS Mean Difference vs placebo / Stage N2 Duration (MWT), LS Mean / Stage N2 Duration (MWT), LS Mean Difference vs placebo / Total Microsleeps (MWT), LS Mean / Total Microsleeps (MWT), LS Mean Difference vs placebo: Modafinil 300 mg (M)
# Description: The primary objective of this study was to determine the effect of Compound A (methyl (2R,3S)-3-((methylsulfonyl)amino)-2-(((cis-4-phenylcyclohexyl)oxy)methyl)piperidine-1-carboxylate), 44 mg (low dose [LD]) and 112 mg (high dose [HD]), after a single IV dose (compared to placebo) on promoting wakefulness as measured by sleep latency on the MWT (performed at approximately 2, 4, 6, and 8 hours post-dosing starting at approximately 1:00 AM and then at approximate times of 3:00, 5:00, and 7:00 AM) in sleep-deprived healthy volunteers.
# This was a phase 1b, single-center, randomized, double-blind, double-dummy, placebo- and active-controlled, 4-period Williams design crossover study to evaluate the PK, PD, and safety of Compound A in sleep-deprived healthy volunteers. Compound A was administered as a 9-hour IV infusion.
# Healthy adult male subjects aged 18 to 40 years, inclusive, who satisfied the inclusion and exclusion criteria were enrolled in the trial. On Day 1 of treatment period 1, eligible subjects were equally randomized to 4 treatment sequence groups (sequence 1 to 4) which defined the order of administration for Compound A LD, Compound A HD (both delivered as a 9-hour IV infusion), modafinil 300 mg, and placebo.
# During the day before dosing on Day 1, participants were administered the KSS at scheduled timepoints. A practice MWT session was performed on Day 1 treatment period 1 (only once during the entire study) to familiarize subjects with the procedures. Study drug was administered in the clinic in the evening on Day 1 of each treatment period. Subjects underwent the MWT and KSS at specified timepoints after the start of the infusion. Subjects were required to stay awake between the MWT tests. Following completion of the IV infusion on Day 2, subjects underwent an additional MWT test. When the final MWT test and cognitive testing were completed, subjects were allowed to sleep (recovery sleep) for approximately 6 hours. PSG recording was collected during this time. Subjects were discharged from the unit after completion on Day 2 with continuing actigraphy upon discharge (to begin on Day −6 before the next treatment period). The interval between each subsequent treatment period was at least 7 days to ensure that the subject's circadian rhythm had returned to a normal cycle. Subject's vital signs, including BP, were monitored during the dosing and testing period. Blood samples for determination of Compound A plasma concentrations were collected at specified timepoints on Days 1 and 2 of each treatment period. Subjects completed the Columbia-Suicide Severity Rating Scale (C-SSRS) during screening, before study drug administration, and before discharge on Day 2 of each treatment period.
# Primary endpoint: Latency for each MWT, defined as time to sleep onset.
# [1] = Average Overall, MWT during infusion
# [2] = Modafinil 300 mg, after the end of infusion (1 hour post end of infusion)
smiles,measurement,setting,value
"NC(=O)C[S+]([O-])C(c1ccccc1)c1ccccc1 (centres unmarked) [Modafinil, modafinil, reference compound]",Total Sleep Time LS Mean,2 HOURS POST INFUSION START,0.88 min
same,Total Sleep Time LS Mean Difference vs Placebo Estimate,2 HOURS POST INFUSION START,-1.85 min
same,Total Wake Time LS Mean,2 HOURS POST INFUSION START,34.87 min
same,Total Wake Time LS Mean Difference vs Placebo Estimate,2 HOURS POST INFUSION START,17.15 min
same,Total Sleep Time LS Mean,4 HOURS POST INFUSION START,0.96 min
same,Total Sleep Time LS Mean Difference vs Placebo Estimate,4 HOURS POST INFUSION START,-2.19 min
same,Total Wake Time LS Mean,4 HOURS POST INFUSION START,36.45 min
same,Total Wake Time LS Mean Difference vs Placebo Estimate,4 HOURS POST INFUSION START,26.40 min
same,Total Sleep Time LS Mean,6 HOURS POST INFUSION START,1.25 min
same,Total Sleep Time LS Mean Difference vs Placebo Estimate,6 HOURS POST INFUSION START,-0.98 min
same,Total Wake Time LS Mean,6 HOURS POST INFUSION START,33.11 min
same,Total Wake Time LS Mean Difference vs Placebo Estimate,6 HOURS POST INFUSION START,26.69 min
same,Total Sleep Time LS Mean,8 HOURS POST INFUSION START,2.35 min
same,Total Sleep Time LS Mean Difference vs Placebo Estimate,8 HOURS POST INFUSION START,-0.57 min
same,Total Wake Time LS Mean,8 HOURS POST INFUSION START,22.32 min
same,Total Wake Time LS Mean Difference vs Placebo Estimate,8 HOURS POST INFUSION START,18.67 min
same,Total Sleep Time LS Mean,[1],1.36 min
same,Total Sleep Time LS Mean Difference vs Placebo Estimate,[1],-1.40 min
same,Total Wake Time LS Mean,[1],31.69 min
same,Total Wake Time LS Mean Difference vs Placebo Estimate,[1],22.23 min
same,"Average total wake time (MWT), LS mean difference vs placebo",Modafinil 300 mg,22.23 min
same,"Total sleep time (MWT), LS mean difference vs placebo",Modafinil 300 mg,-1.40 min
same,"Duration Total Microsleeps (MWT), LS Mean",2 hours post infusion start,5.75 s
same,"Duration Total Microsleeps (MWT), LS Mean Difference vs placebo",2 hours post infusion start,-3.05 s
same,"Latency to Sleep Onset on MWT, LS Mean",2 hours post infusion start,35.57 min
same,"Latency to Sleep Onset on MWT, LS Mean Difference vs placebo",2 hours post infusion start,19.89 min
same,"Stage N1 Duration (MWT), LS Mean",2 hours post infusion start,0.47 min
same,"Stage N1 Duration (MWT), LS Mean Difference vs placebo",2 hours post infusion start,-0.68 min
same,"Stage N2 Duration (MWT), LS Mean",2 hours post infusion start,0.36 min
same,"Stage N2 Duration (MWT), LS Mean Difference vs placebo",2 hours post infusion start,-0.49 min
same,"Total Microsleeps (MWT), LS Mean",2 hours post infusion start,1.06
same,"Total Microsleeps (MWT), LS Mean Difference vs placebo",2 hours post infusion start,−0.74
same,"Duration Total Microsleeps (MWT), LS Mean",4 hours post infusion start,7.91 s
same,"Duration Total Microsleeps (MWT), LS Mean Difference vs placebo",4 hours post infusion start,-4.39 s
same,"Latency to Sleep Onset on MWT, LS Mean",4 hours post infusion start,35.60 min
same,"Latency to Sleep Onset on MWT, LS Mean Difference vs placebo",4 hours post infusion start,26.50 min
same,"Stage N1 Duration (MWT), LS Mean",4 hours post infusion start,0.68 min
same,"Stage N1 Duration (MWT), LS Mean Difference vs placebo",4 hours post infusion start,-0.97 min
same,"Stage N2 Duration (MWT), LS Mean",4 hours post infusion start,0.20 min
same,"Stage N2 Duration (MWT), LS Mean Difference vs placebo",4 hours post infusion start,-0.95 min
same,"Total Microsleeps (MWT), LS Mean",4 hours post infusion start,1.27
same,"Total Microsleeps (MWT), LS Mean Difference vs placebo",4 hours post infusion start,−1.08
same,"Duration Total Microsleeps (MWT), LS Mean",6 hours post infusion start,9.70 s
same,"Duration Total Microsleeps (MWT), LS Mean Difference vs placebo",6 hours post infusion start,2.30 s
same,"Latency to Sleep Onset on MWT, LS Mean",6 hours post infusion start,31.89 min
same,"Latency to Sleep Onset on MWT, LS Mean Difference vs placebo",6 hours post infusion start,25.74 min
same,"Stage N1 Duration (MWT), LS Mean",6 hours post infusion start,0.84 min
same,"Stage N1 Duration (MWT), LS Mean Difference vs placebo",6 hours post infusion start,-0.31 min
same,"Stage N2 Duration (MWT), LS Mean",6 hours post infusion start,0.20 min
same,"Stage N2 Duration (MWT), LS Mean Difference vs placebo",6 hours post infusion start,-0.30 min
same,"Total Microsleeps (MWT), LS Mean",6 hours post infusion start,1.85
same,"Total Microsleeps (MWT), LS Mean Difference vs placebo",6 hours post infusion start,0.60
same,"Duration Total Microsleeps (MWT), LS Mean",8 hours post infusion start,12.64 s
same,"Duration Total Microsleeps (MWT), LS Mean Difference vs placebo",8 hours post infusion start,4.84 s
same,"Latency to Sleep Onset on MWT, LS Mean",8 hours post infusion start,20.44 min
same,"Latency to Sleep Onset on MWT, LS Mean Difference vs placebo",8 hours post infusion start,16.91 min
same,"Stage N1 Duration (MWT), LS Mean",8 hours post infusion start,1.15 min
same,"Stage N1 Duration (MWT), LS Mean Difference vs placebo",8 hours post infusion start,0.00 min
same,"Stage N2 Duration (MWT), LS Mean",8 hours post infusion start,0.89 min
same,"Stage N2 Duration (MWT), LS Mean Difference vs placebo",8 hours post infusion start,-0.21 min
same,"Total Microsleeps (MWT), LS Mean",8 hours post infusion start,2.22
same,"Total Microsleeps (MWT), LS Mean Difference vs placebo",8 hours post infusion start,0.92
same,"Duration Total Microsleeps (MWT), LS Mean",average overall,9.00 s
same,"Duration Total Microsleeps (MWT), LS Mean Difference vs placebo",average overall,-0.08 s
same,"Latency to Sleep Onset on MWT, LS Mean",average overall,30.87 min and 30.87 (1.888) min
same,"Latency to Sleep Onset on MWT, LS Mean Difference vs placebo",average overall,22.26 min and 22.3 min and 22.62 min and 22.26 (2.634) min
same,"Stage N1 Duration (MWT), LS Mean",average overall,0.79 min
same,"Stage N1 Duration (MWT), LS Mean Difference vs placebo",average overall,-0.49 min
same,"Stage N2 Duration (MWT), LS Mean",average overall,0.41 min
same,"Stage N2 Duration (MWT), LS Mean Difference vs placebo",average overall,-0.49 min
same,"Total Microsleeps (MWT), LS Mean",average overall,1.60
same,"Total Microsleeps (MWT), LS Mean Difference vs placebo",average overall,−0.08
same,"Latency to Sleep Onset on MWT, LS Mean (SE)",[2],21.42 (2.168)
same,"Latency to Sleep Onset on MWT, LS Mean Difference vs placebo, Estimate (SE)",[2],16 minutes and 16.77 (2.692) minutes
